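Tested at 5 concentrations; 48 h exposure; 96-well plates; endpoints linearly interpolated, else capped at highest concentration. GI50: concentration for 50% inhibition of growth.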 Active and inactive are the calls of the source. Cut-off read from the data, not from the text of the source: active = GI50 up to about 1.1 µM and inactive = higher.
Experiments:
Experiment in all cases: NCI tumour cell line growth inhibition, 48 h
786-0 = system: 786-0
A549 = system: A549
ACHN = system: ACHN
BT-549 = system: BT-549
COLO 205 = system: COLO 205
HOP-62 = system: HOP-62
K562 = system: K562
KM12 = system: KM12
MOLT-4 = system: MOLT-4
Malme-3M = system: Malme-3M
NCI-H23 = system: NCI-H23
NCI-H460 = system: NCI-H460
OVCAR-3 = system: OVCAR-3
OVCAR-4 = system: OVCAR-4
RXF 393 = system: RXF 393
SK-OV-3 = system: SK-OV-3
SR = system: SR
HCC 2998 = system: HCC 2998
MDA-MB-231 = system: MDA-MB-231
SNB-19 = system: SNB-19

Measured: GI50

O=C(O)c1cc(CCc2cc(O)ccc2O)ccc1O
inactive: 786-0 > 100 µM | A549 > 100 µM | ACHN > 100 µM | BT-549 > 100 µM | COLO 205 > 100 µM | HOP-62 > 100 µM | K562 37.2 µM | KM12 > 100 µM | MOLT-4 56.6 µM | Malme-3M > 100 µM | NCI-H23 > 100 µM | NCI-H460 > 100 µM | OVCAR-3 > 100 µM | OVCAR-4 > 100 µM | RXF 393 > 100 µM | SK-OV-3 > 100 µM | SR > 100 µM

CCC1(O)CC2CC(=O)OC2C1O (stereo not given)
inactive: 786-0 > 100 µM | A549 > 100 µM | ACHN > 100 µM | COLO 205 > 100 µM | HCC 2998 > 100 µM | HOP-62 > 100 µM | K562 > 100 µM | KM12 > 100 µM | MDA-MB-231 > 100 µM | MOLT-4 > 100 µM | Malme-3M > 100 µM | NCI-H23 > 100 µM | NCI-H460 > 100 µM | OVCAR-3 > 100 µM | OVCAR-4 > 100 µM | RXF 393 > 100 µM | SK-OV-3 > 100 µM | SNB-19 > 100 µM | SR > 100 µM

NC1=NS(=O)(=O)Nc2nc(-c3ccc(Cl)cc3)[nH]c21
inactive: 786-0 > 100 µM | A549 > 100 µM | ACHN > 100 µM | COLO 205 > 100 µM | HCC 2998 > 100 µM | HOP-62 > 100 µM | K562 > 100 µM | KM12 > 100 µM | MOLT-4 > 100 µM | Malme-3M > 100 µM | NCI-H23 > 100 µM | NCI-H460 > 100 µM | OVCAR-3 > 100 µM | OVCAR-4 > 100 µM | RXF 393 > 10 µM | SK-OV-3 > 100 µM | SNB-19 > 100 µM | SR > 100 µM

Cc1ccc(S(=O)(=O)c2ccsc2NC(=O)C(F)(F)F)cc1
inactive: 786-0 37.6 µM | A549 34 µM | ACHN 39.2 µM | BT-549 40.3 µM | COLO 205 10.8 µM | HCC 2998 29 µM | HOP-62 34.7 µM | KM12 31.1 µM | MDA-MB-231 24.5 µM | MOLT-4 18.5 µM | Malme-3M 40.7 µM | NCI-H23 34.5 µM | NCI-H460 27.3 µM | OVCAR-3 42.6 µM | OVCAR-4 20.6 µM | SK-OV-3 36.8 µM | SNB-19 65 µM

COc1ccc2nc3ccc(OC)cc3c(SCc3ccc([N+](=O)[O-])cc3)c2c1
inactive: 786-0 24.7 µM | A549 > 100 µM | ACHN 79.1 µM | COLO 205 > 100 µM | HCC 2998 > 100 µM | HOP-62 78.9 µM | K562 > 100 µM | KM12 > 100 µM | MDA-MB-231 39.2 µM | MOLT-4 > 100 µM | Malme-3M > 100 µM | NCI-H23 50 µM | NCI-H460 > 100 µM | OVCAR-3 63 µM | OVCAR-4 19 µM | RXF 393 > 100 µM | SK-OV-3 > 100 µM | SNB-19 > 100 µM | SR > 100 µM

CCOC(=O)Cn1nc2ccc(Nc3c(C)[n+]([O-])c4cc(F)c(OCC)cc4[n+]3[O-])cc2n1
inactive: 786-0 29.8 µM | ACHN 22.4 µM | HOP-62 33 µM | K562 > 100 µM | KM12 > 100 µM | MDA-MB-231 46.8 µM | MOLT-4 > 100 µM | NCI-H23 > 100 µM | NCI-H460 > 100 µM | OVCAR-3 > 100 µM | OVCAR-4 > 100 µM | RXF 393 20.7 µM | SK-OV-3 56.4 µM | SR > 100 µM

CCOC(=O)C1C(C(C)C)C2(C#N)C(=N)OC1(C)C2(C#N)C#N (stereo not given)
inactive: 786-0 54 µM | A549 > 100 µM | ACHN > 100 µM | COLO 205 7.46 µM | HCC 2998 > 100 µM | K562 30.8 µM | KM12 > 100 µM | MDA-MB-231 > 100 µM | Malme-3M 40.8 µM | NCI-H23 54.5 µM | RXF 393 36.3 µM | SK-OV-3 > 100 µM | SNB-19 > 100 µM

Cc1cc2c3ccccc3[nH]c2c2ccnc(C)c12
inactive: 786-0 1.65 µM | A549 8.28 µM | ACHN 15.7 µM | COLO 205 1.94 µM | HCC 2998 2.87 µM | HOP-62 13.6 µM | K562 2.22 µM | KM12 10.6 µM | MDA-MB-231 4.08 µM | MOLT-4 7.16 µM | Malme-3M 13.5 µM | NCI-H23 12.5 µM | NCI-H460 2.35 µM | OVCAR-3 10.3 µM | OVCAR-4 > 100 µM | SK-OV-3 14.2 µM | SNB-19 18.6 µM | SR 6.62 µM

C[C@H]1CC(=O)C2=CCCC3(SCCCS3)[C@@H]2[C@H]1CO
inactive: 786-0 > 100 µM | A549 > 100 µM | ACHN > 100 µM | COLO 205 > 100 µM | HCC 2998 > 100 µM | HOP-62 > 100 µM | K562 47.1 µM | KM12 > 100 µM | MOLT-4 44.9 µM | Malme-3M > 100 µM | NCI-H23 > 100 µM | NCI-H460 > 100 µM | OVCAR-3 > 100 µM | OVCAR-4 > 100 µM | RXF 393 > 100 µM | SK-OV-3 > 100 µM | SNB-19 > 100 µM | SR 54.3 µM

O=C1C2c3[nH]c4ccccc4c3C3CCCCC3C2C(=O)N1c1ccccc1 (stereo not given)
inactive: 786-0 34.2 µM | A549 > 100 µM | ACHN 99.3 µM | COLO 205 > 100 µM | HCC 2998 > 100 µM | K562 63.8 µM | KM12 > 100 µM | MOLT-4 64.7 µM | Malme-3M > 100 µM | NCI-H23 > 100 µM | NCI-H460 > 100 µM | OVCAR-3 73.6 µM | OVCAR-4 45.1 µM | RXF 393 19.6 µM | SK-OV-3 20.7 µM | SNB-19 84.1 µM | SR > 100 µM

O=C1CS[C@@](CC(c2ccc(Cl)cc2)c2ccc(Cl)cc2)(c2ccc(Cl)cc2)N1
inactive: 786-0 9.66 µM | A549 5.97 µM | ACHN 11.2 µM | BT-549 49.8 µM | COLO 205 4.74 µM | HCC 2998 19.5 µM | HOP-62 14.2 µM | K562 5.15 µM | KM12 13.4 µM | MOLT-4 3.32 µM | Malme-3M 21.6 µM | NCI-H23 9.75 µM | NCI-H460 9.1 µM | OVCAR-3 6.21 µM | OVCAR-4 6.82 µM | RXF 393 3.56 µM | SK-OV-3 45 µM | SNB-19 33.2 µM | SR 4.24 µM

N#C/C(=C\c1ccc2ccccc2c1)C(=O)c1ccccc1
inactive: 786-0 > 61.8 µM | A549 > 100 µM | ACHN > 100 µM | BT-549 52.2 µM | COLO 205 > 100 µM | HCC 2998 > 100 µM | HOP-62 20.8 µM | K562 > 65.8 µM | KM12 > 100 µM | MOLT-4 23.5 µM | Malme-3M > 95.7 µM | NCI-H23 > 57.4 µM | NCI-H460 > 94.6 µM | OVCAR-3 > 65.2 µM | OVCAR-4 > 100 µM | RXF 393 36.2 µM | SK-OV-3 > 46.8 µM | SNB-19 > 82.4 µM | SR 37.8 µM

N#CCCC(CC#N)N1CCN(C(CC#N)CCC#N)CC1 (stereo not given)
inactive: 786-0 > 100 µM | A549 > 100 µM | ACHN > 100 µM | BT-549 > 100 µM | COLO 205 > 100 µM | HCC 2998 > 100 µM | HOP-62 > 100 µM | K562 > 100 µM | MOLT-4 > 100 µM | Malme-3M > 100 µM | NCI-H23 > 100 µM | NCI-H460 > 100 µM | OVCAR-3 > 100 µM | OVCAR-4 > 100 µM | RXF 393 > 100 µM | SK-OV-3 > 100 µM | SNB-19 > 100 µM | SR > 100 µM

O=C1N(CN2CCOCC2)CN(CN2CCOCC2)C(=O)N1Cc1ccc(CN2C(=O)N(CN3CCOCC3)CN(CN3CCOCC3)C2=O)cc1
inactive: 786-0 28.8 µM | A549 40.2 µM | ACHN 41.8 µM | COLO 205 43 µM | HCC 2998 > 100 µM | HOP-62 > 100 µM | KM12 48.1 µM | MDA-MB-231 57.9 µM | MOLT-4 35.2 µM | NCI-H23 34.4 µM | NCI-H460 36.9 µM | OVCAR-3 31.6 µM | OVCAR-4 35.7 µM | SK-OV-3 > 100 µM | SNB-19 97.7 µM | SR 46.9 µM

CCOC(OCC)[C@H](N)[C@@H](O)[C@@H](O)[C@H]1COC(C)(C)O1
inactive: 786-0 > 100 µM | A549 > 100 µM | ACHN > 100 µM | COLO 205 > 100 µM | HOP-62 > 100 µM | K562 > 100 µM | KM12 > 100 µM | MDA-MB-231 > 100 µM | MOLT-4 > 100 µM | Malme-3M > 100 µM | NCI-H23 > 100 µM | OVCAR-3 > 100 µM | OVCAR-4 > 100 µM | SK-OV-3 > 100 µM | SNB-19 > 100 µM | SR > 100 µM

COc1nc(N(C)C)nc2c1[n+](C)cn2C [HETEROMINE A]
inactive: 786-0 48.3 µM | A549 46.9 µM | ACHN > 100 µM | BT-549 28.7 µM | COLO 205 30.8 µM | HOP-62 > 100 µM | K562 18.6 µM | KM12 27.7 µM | MDA-MB-231 > 100 µM | MOLT-4 97.9 µM | Malme-3M 23.1 µM | NCI-H23 22.4 µM | NCI-H460 44.2 µM | OVCAR-3 47 µM | RXF 393 84.1 µM | SK-OV-3 > 100 µM | SNB-19 25.1 µM

— ChEMBL document CHEMBL1201862, “PubChem BioAssay data set” (2004)
